Reference: US20210330611A1, “THERAPY FOR NEUROLOGICAL DISEASES/DISORDERS” (priority 2020, published 2021)
“And” between values parts separate entries of the source, which are not always exact repeats. Identical values can stand only once. Counter-ions that a name gives are not always drawn. Like-named read-outs stand apart in the source and are kept apart here.

Key:
[1] = test system: fibrin- and LPS-induced microglia activation; assay: cells; assay type: cell-based, rat; conditions: for inhibition at 10 µM: Rattus norvegicus, Microglia
primary rat microglia [2] = assay: Cell toxicity (dead cells, size <150 μm2) in LPS assay
primary rat microglia [3] = assay: Cell toxicity (dead cells, size <150 μm2) in coated fibrin (cFib) assay;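 note: share of dead cells sized under 150 µm2 at 10 µM in fibrin-stimulated microglia HTS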
[4] = test system: fibrin-induced microglia activation; assay: Image-based assay of fibrin-induced microglia activation (HTS and dose response); assay type: cell-based, rat; conditions: for inhibition at 10 µM / IC50: Rattus norvegicus, Microglia; for inhibition at 10 µM / Fibrin % inhibition: primary microglia HTS; for inhibition at 10 µM: fibrin stimulation, increased cell size (>800 μm^2) as marker of activation, read-out: Fibrin % inhibition; for Fibrin % inhibition: 10 μM, fibrin-stimulated, cell size >800 μm^2 as marker of activation
[5] = test system: LPS-induced microglia activation; assay: Image-based assay of LPS-induced microglia activation (HTS and dose response); assay type: cell-based, rat; conditions: for inhibition at 10 µM / IC50: Rattus norvegicus, Microglia; for inhibition at 10 µM: read-out: LPS % inhibition
[6] = quadrant by fibrin and LPS inhibition in HTS of 1907 compounds
[7] = primary microglia HTS, LPS stimulation, decreased size (<150 μm^2) as marker of toxicity
[8] = primary microglia HTS, fibrin stimulation, decreased size (<150 μm^2) as marker of toxicity
[9] = primary HTS, 10 μM, LPS assay, dead cells size <150 μm2
[10] = primary HTS, 10 μM, fibrin assay, dead cells size <150 μm2
[11] = primary HTS, 10 μM, LPS-stimulated primary microglia
[12] = primary microglia HTS, LPS stimulation, toxicity = cell size <150 μm2
[13] = primary microglia HTS, fibrin stimulation, toxicity = cell size <150 μm2
[14] = HTS of 1907 compounds, quadrant by fibrin and LPS inhibition
[15] = primary microglia HTS, 10 μM, LPS assay, cell size <150 μm^2 as marker of toxicity
[16] = primary microglia HTS, 10 μM, fibrin assay, cell size <150 μm^2 as marker of toxicity
[17] = primary microglia HTS, 10 μM, LPS-stimulated, cell size >800 μm^2 as marker of activation

Structure (SMILES): CCCC1O[C@@H]2C[C@H]3[C@@H]4CCC5=CC(=O)C=C[C@]5(C)[C@H]4[C@@H](O)C[C@]3(C)[C@]2(C(=O)CO)O1 (stereo partly drawn) [Budesonide]
- Quadrant (FIG. 5b) [1, 6]: Q2
- LPS % cell toxicity (primary rat microglia [2]; [7]): 5% and 1%
- Fibrin % cell toxicity (primary rat microglia [3]; [8]): 3% and 6%
- inhibition at 10 µM [4]: 110%

Structure (SMILES): CC(C)(O/N=C(\C(=O)N[C@@H]1C(=O)N2C(C(=O)[O-])=C(C[n+]3ccccc3)CS[C@H]12)c1csc(N)n1)C(=O)O [Ceftazidime]
- Quadrant (FIG. 5b) ([1]; primary HTS, 10 μM): Q4
- LPS % cell toxicity (primary rat microglia [2]; [9]): 1%
- Fibrin % cell toxicity (primary rat microglia [3]; [10]): 1%
- inhibition at 10 µM [5, 11]: 17%
- LPS % inhibition [5, 11]: 30%

Structure (SMILES): CN(C)CC/C=C1/c2ccccc2Sc2ccc(Cl)cc21 [Chlorprothixene]
- Quadrant (FIG. 5b) ([1]; primary HTS, 10 μM): Q4
- LPS % cell toxicity (primary rat microglia [2]; [9]): 1% and 0%
- Fibrin % cell toxicity (primary rat microglia [3]; [10]): 1%

Structure (SMILES): CN(C)CCCC1(c2ccc(F)cc2)OCc2cc(C#N)ccc21 (stereo not drawn) [Citalopram]
- Quadrant (FIG. 5b) ([1]; primary HTS, 10 μM): Q4
- LPS % cell toxicity (primary rat microglia [2]; [9]): 0%
- Fibrin % cell toxicity (primary rat microglia [3]; [10]): 0%
- inhibition at 10 µM [5, 11]: 10%
- LPS % inhibition [5, 11]: 8%

Structure (SMILES): Oc1ccc(C2CNCCc3c2cc(O)c(O)c3Cl)cc1 (stereo not drawn) [Fenoldopam]
- Quadrant (FIG. 5b) [1, 6]: Q4
- LPS % cell toxicity (primary rat microglia [2]; [12]): 0%
- Fibrin % cell toxicity (primary rat microglia [3]; [13]): 1% and 0%

Structure (SMILES): CC(C)(C)NC(=O)[C@H]1CC[C@H]2[C@@H]3CC[C@H]4NC(=O)C=C[C@]4(C)[C@H]3CC[C@]12C [Finasteride]
- Quadrant (FIG. 5b) [1, 6]: Q4
- LPS % cell toxicity (primary rat microglia [2]; [12]): 1% and 0%
- Fibrin % cell toxicity (primary rat microglia [3]; [13]): 1% and 0%

Structure (SMILES): CC(=O)[C@@]1(O)CC[C@H]2[C@@H]3C[C@H](C)C4=CC(=O)C=C[C@]4(C)[C@@]3(F)[C@@H](O)C[C@@]21C [Fluorometholone]
- Quadrant (FIG. 5b) [1, 6]: Q2
- LPS % cell toxicity (primary rat microglia [2]; [7]): 1% and 7%
- Fibrin % cell toxicity (primary rat microglia [3]; [8]): 6% and 3%
- inhibition at 10 µM [4]: 104%

Structure (SMILES): CCC(=O)O[C@]1(C(=O)SCF)[C@H](C)C[C@H]2[C@@H]3C[C@H](F)C4=CC(=O)C=C[C@]4(C)[C@@]3(F)[C@@H](O)C[C@@]21C [Fluticasone Propionate]
- Quadrant (FIG. 5b) [1, 6]: Q2
- LPS % cell toxicity (primary rat microglia [2]; [7]): 3% and 4%
- Fibrin % cell toxicity (primary rat microglia [3]; [8]): 7% and 5%
- inhibition at 10 µM [4]: 108%

Structure (SMILES): N=C(N)NC(=O)Cc1c(Cl)cccc1Cl [Guanfacine]
- Quadrant (FIG. 5b) [1, 6]: Q4
- LPS % cell toxicity (primary rat microglia [2]; [12]): 0%
- Fibrin % cell toxicity (primary rat microglia [3]; [13]): 1%

Structure (SMILES): OCCOCCN1CCN(C(c2ccccc2)c2ccc(Cl)cc2)CC1 (stereo not drawn) [Hydroxyzine]
- Quadrant (FIG. 5b) [1, 6]: Q4
- LPS % cell toxicity (primary rat microglia [2]; [12]): 0%
- Fibrin % cell toxicity (primary rat microglia [3]; [13]): 0% and 1%

Structure (SMILES): CCCCCN(C)CCC(O)(P(=O)(O)O)P(=O)(O)O [Ibandronate]
- Quadrant (FIG. 5b) [1, 6]: Q4
- LPS % cell toxicity (primary rat microglia [2]; [12]): 0%
- Fibrin % cell toxicity (primary rat microglia [3]; [13]): 0% and 1%

Structure (SMILES): O=[N+]([O-])O[C@H]1CO[C@H]2[C@@H]1OC[C@H]2O[N+](=O)[O-] [Isosorbide Dinitrate]
- LPS % cell toxicity (primary rat microglia [2]; [12]): 0%
- Fibrin % cell toxicity (primary rat microglia [3]; [13]): 0%

Structure (SMILES): Nc1ccn([C@@H]2CS[C@H](CO)O2)c(=O)n1 [Lamivudine]
- Quadrant (FIG. 5b) [1, 6]: Q4
- LPS % cell toxicity (primary rat microglia [2]; [12]): 0%
- Fibrin % cell toxicity (primary rat microglia [3]; [13]): 1%

Structure (SMILES): CC(Oc1c(Cl)cccc1Cl)C1=NCCN1 (stereo not drawn) [Lofexidine]
- Quadrant (FIG. 5b) [1, 6]: Q4
- LPS % cell toxicity (primary rat microglia [2]; [12]): 0%
- Fibrin % cell toxicity (primary rat microglia [3]; [13]): 0% and 1%

Structure (SMILES): CNC[C@H](O)[C@@H](O)[C@H](O)[C@H](O)CO [Meglumine]
- Quadrant (FIG. 5b) [1, 6]: Q4
- LPS % cell toxicity (primary rat microglia [2]; [7]): 0% and 1%
- Fibrin % cell toxicity (primary rat microglia [3]; [8]): 0% and 1%

Structure (SMILES): C[C@@H](O)[C@H]1C(=O)N2C(C(=O)O)=C(S[C@@H]3CN[C@H](C(=O)N(C)C)C3)[C@H](C)[C@H]12 [Meropenem]
- Quadrant (FIG. 5b) [1, 6]: Q4
- LPS % cell toxicity (primary rat microglia [2]; [7]): 0%
- Fibrin % cell toxicity (primary rat microglia [3]; [8]): 1%

Structure (SMILES): C[C@H](N)[C@H](O)c1cccc(O)c1 [Metaraminol]
- Quadrant (FIG. 5b) [1, 6]: Q4
- LPS % cell toxicity (primary rat microglia [2]; [7]): 1%
- Fibrin % cell toxicity (primary rat microglia [3]; [8]): 0% and 1%

Structure (SMILES): C[N+]1(C)[C@@H]2C[C@@H](OC(=O)[C@H](CO)c3ccccc3)C[C@H]1[C@@H]1O[C@@H]12 [Methscopolamine Bromide]
- Quadrant (FIG. 5b) [1, 6]: Q4
- LPS % cell toxicity (primary rat microglia [2]; [7]): 0%
- Fibrin % cell toxicity (primary rat microglia [3]; [8]): 1%

Structure (SMILES): CC[C@@H](CO)NC(=O)[C@@H]1C=C2c3cccc4c3c(cn4C)C[C@H]2N(C)C1 [Methysergide Maleate]
- Quadrant (FIG. 5b) [1, 6]: Q4
- LPS % cell toxicity (primary rat microglia [2]; [7]): 0%
- Fibrin % cell toxicity (primary rat microglia [3]; [8]): 0% and 1%

Structure (SMILES): CCN(CC)C(=O)C1(c2ccccc2)CC1CN (stereo not drawn) [Milnacipran hydrochloride, reference compound]
- Quadrant (FIG. 5b) [1, 14]: Q3
- inhibition at 10 µM ([1]; Table 3, read-out: Cherry-picked Hit (Suppl. Table 7)): > 50%
- inhibition at 10 µM ([1]; HTS hit classification, read-out: Hit): > 50%
- Quadrant (FIG. 5b) ([1]; Table 1, screen at 10 μM): Q3
- Quadrant (FIG. 5b) ([1]; Table 3, screen at 10 μM): Q3
- Quadrant (FIG. 5b) [1, 6]: Q3
- LPS % cell toxicity (primary rat microglia [2]; [7]): 1%
- IC50 ([4]; 48 h, Table 1, dose response 0.001-20 μM, triplicates, primary rat microglia, 48 h, read-out: Fibrin IC50): 8 µM
- IC50 ([4]; Table 3, read-out: Fibrin IC50 (uM) (Suppl. Table 7)): 8 µM
- IC50 ([4]; dose response, fibrin-induced microglia activation, read-out: Fibrin IC50): 8 µM
- IC50 ([4]; fibrin-induced microglia activation, dose response, read-out: Fibrin IC50 (uM) (Suppl. Table 7)): 8 µM
- inhibition at 10 µM [4]: 72%
- IC50 ([5]; 48 h, Table 1, dose response 0.001-20 μM, triplicates, primary rat microglia, 48 h, read-out: LPS IC50): 20 µM
- inhibition at 10 µM ([5]; 48 h, primary microglia HTS, LPS stimulation, increased cell size (>800 μm^2) as marker of activation): 31%
- IC50 ([5]; LPS-induced microglia activation, dose response, read-out: LPS IC50 (uM) (Suppl. Table 7)): 20 µM
- IC50 ([5]; Table 3, read-out: LPS IC50 (uM) (Suppl. Table 7)): 20 µM
- IC50 ([5]; dose response, LPS-induced microglia activation, read-out: LPS IC50): 20 µM

Structure (SMILES): CC(C)[C@H]1CC[C@H](C(=O)N[C@H](Cc2ccccc2)C(=O)O)CC1 [Nateglinide]
- Quadrant (FIG. 5b) [1, 6]: Q4
- LPS % cell toxicity (primary rat microglia [2]; [7]): 1% and 0%
- Fibrin % cell toxicity (primary rat microglia [3]; [8]): 1%

Structure (SMILES): CN1Cc2c(N)cccc2C(c2ccccc2)C1 (stereo not drawn) [Nomifensine]
- Quadrant (FIG. 5b) [1, 6]: Q4
- LPS % cell toxicity (primary rat microglia [2]; [7]): 0%
- Fibrin % cell toxicity (primary rat microglia [3]; [8]): 0%

Structure (SMILES): NC[C@H](O)c1ccc(O)c(O)c1 [Norepinephrine]
- Quadrant (FIG. 5b) [1, 6]: Q4
- LPS % cell toxicity (primary rat microglia [2]; [7]): 0%
- Fibrin % cell toxicity (primary rat microglia [3]; [8]): 1%

Structure (SMILES): C[C@@H]1[C@H](O)[C@@H](C)/C=C/C=C/CC/C=C/C=C/C=C/C=C/C(O[C@H]2O[C@H](C)[C@@H](O)[C@H](N)[C@@H]2O)CC2O[C@](O)(CC(O)C(O)CCC(O)CC(O)CC(O)CC(=O)O[C@H]1C)CC(O)C2C(=O)O (stereo partly drawn) [Nystatin]
- Quadrant (FIG. 5b) [1, 6]: Q4
- LPS % cell toxicity (primary rat microglia [2]; [7]): 1%
- Fibrin % cell toxicity (primary rat microglia [3]; [8]): 0% and 1%

Structure (SMILES): C[C@]1(Cn2ccnn2)[C@H](C(=O)O)N2C(=O)C[C@H]2S1(=O)=O [Tazobactam]
- Quadrant (FIG. 5b) [1, 14]: Q4
- LPS % cell toxicity (primary rat microglia [2]; [15]): 0%
- Fibrin % cell toxicity (primary rat microglia [3]; [16]): 1% and 0%

Structure (SMILES): CC(C)N1CCN(c2ccc(OCC3COC(Cn4cncn4)(c4ccc(Cl)cc4Cl)O3)cc2)CC1 (stereo not drawn) [Terconazole]
- Quadrant (FIG. 5b) [1, 14]: Q4
- LPS % cell toxicity (primary rat microglia [2]; [15]): 0%
- Fibrin % cell toxicity (primary rat microglia [3]; [16]): 1%

Structure (SMILES): CCNC1(c2cccs2)CCCCC1=O.Cl (stereo not drawn) [Tiletamine Hydrochloride]
- Quadrant (FIG. 5b) [1, 14]: Q4
- LPS % cell toxicity (primary rat microglia [2]; [15]): 0%
- Fibrin % inhibition [4]: 8%
- LPS % inhibition [5, 17]: 22%

Structure (SMILES): COc1cccc(C2(O)CCCCC2CN(C)C)c1 (stereo not drawn) [Tramadol Hydrochloride]
- LPS % cell toxicity (primary rat microglia [2]; [15]): 0%
- Fibrin % cell toxicity (primary rat microglia [3]; [16]): 0%

Structure (SMILES): COc1cccc(C2(O)CCCCC2CN(C)C)c1 (stereo not drawn) [Tramadol]
- Quadrant (FIG. 5b) [1, 14]: Q4
- LPS % cell toxicity (primary rat microglia [2]; [15]): 0%
- Fibrin % cell toxicity (primary rat microglia [3]; [16]): 1%

Structure (SMILES): CC[C@H]1OC(=O)C[C@@H](O)[C@H](C)[C@@H](O[C@@H]2O[C@H](C)[C@@H](O[C@H]3C[C@@](C)(O)[C@@H](O)[C@H](C)O3)[C@H](N(C)C)[C@H]2O)[C@@H](CC=O)C[C@@H](C)C(=O)/C=C/C(C)=C/[C@@H]1CO[C@@H]1O[C@H](C)[C@@H](O)[C@@H](OC)[C@H]1OC.O=C(O)C(O)C(O)C(=O)O [Tylosin Tartrate]
- Quadrant (FIG. 5b) [1, 14]: Q4
- LPS % cell toxicity (primary rat microglia [2]; [15]): 0%
- Fibrin % inhibition [4]: 9%
- LPS % inhibition [5, 17]: 11%
